Measured values published in patent publication US9556179B2 (BRISTOL-MYERS SQUIBB COMPANY, priority 2012, dated 2017).

What was measured:
CK1δ = CK1δ (Homo sapiens (Human), UniProt P48730); assay: CK1δ kinase assay (Caliper LABCHIP electrophoretic separation of fluoresceinated peptide substrate and product); format: biochemical; conditions: 200 pM enzyme, 50 μM ATP, 22 hours at room temperature
Description: (§1) CK1ε and CK1δ Kinase Assays
(§2) The kinase assay was performed in V-bottom 384-well plates. […] The reaction was incubated at room temperature for 22 hours and terminated by adding 45 μl of 35 mM EDTA to each sample. The reaction mixture was analyzed on the Caliper LABCHIP®3000 (Caliper, Hopkinton, Mass.) by electrophoretic separation of the unphosphorylated substrate and phosphorylated product. […] Compounds were dissolved at 10 mM in dimethylsulfoxide (DMSO) and evaluated at eleven concentrations. IC50 values were derived by non-linear regression analysis.

CK1ε = CK1ε (Homo sapiens (Human), UniProt P49674); assay: CK1ε kinase assay (Caliper LABCHIP electrophoretic separation of fluoresceinated peptide substrate and product); format: biochemical; conditions: 200 pM enzyme, 50 μM ATP, 22 hours at room temperature
Description: as §1, §2

Sequence of CK1ε (P49674 whole entry): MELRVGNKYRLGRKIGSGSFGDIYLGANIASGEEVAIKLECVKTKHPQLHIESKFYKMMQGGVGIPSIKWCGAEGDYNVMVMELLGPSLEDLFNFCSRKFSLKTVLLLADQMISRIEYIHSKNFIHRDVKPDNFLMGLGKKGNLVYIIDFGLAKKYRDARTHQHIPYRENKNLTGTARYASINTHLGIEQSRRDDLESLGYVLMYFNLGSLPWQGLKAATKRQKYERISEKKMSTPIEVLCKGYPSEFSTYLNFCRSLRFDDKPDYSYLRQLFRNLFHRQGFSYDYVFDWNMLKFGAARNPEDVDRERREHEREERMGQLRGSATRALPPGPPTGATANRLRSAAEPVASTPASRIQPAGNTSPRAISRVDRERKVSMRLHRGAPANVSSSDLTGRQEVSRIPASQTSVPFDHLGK
Sequence of CK1δ (P48730 whole entry): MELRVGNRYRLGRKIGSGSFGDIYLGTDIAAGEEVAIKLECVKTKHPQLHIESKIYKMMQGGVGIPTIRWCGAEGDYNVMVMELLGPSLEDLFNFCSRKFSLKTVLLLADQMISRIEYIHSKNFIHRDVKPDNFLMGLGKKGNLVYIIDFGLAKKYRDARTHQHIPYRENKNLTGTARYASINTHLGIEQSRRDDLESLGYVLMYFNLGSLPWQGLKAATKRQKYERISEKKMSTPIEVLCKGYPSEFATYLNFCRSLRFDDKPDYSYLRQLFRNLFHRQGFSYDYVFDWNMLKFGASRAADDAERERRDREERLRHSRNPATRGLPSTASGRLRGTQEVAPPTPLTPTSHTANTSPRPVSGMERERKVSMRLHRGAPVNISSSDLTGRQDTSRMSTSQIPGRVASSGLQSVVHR

Row | IC50 (CK1δ) [nM] | IC50 (CK1ε) [nM] | SMILES
1 | 2.54 | 2.46 | CN1CCC(n2cnc(-c3ccc(F)cc3)c2-c2ccc3nc(NC(=O)c4ccncc4)cn3n2)CC1 [Compound 2]
2 | 0.306 | 0.298 | O=C(Nc1cn2nc(-c3c(-c4ccc(F)cc4)ncn3C3CCN(Cc4ccon4)CC3)ccc2n1)c1ccncc1 [Compound 3, N-(6-(4-(4-fluorophenyl)-1-(1-(isoxazol-3-ylmethyl)piperidin-4-yl)-1H-imidazol-5-yl)imidazo[1,2-b]pyridazin-2-yl)isonicotinamide]
3 | 0.302 | 2.25 | O=C(Nc1cn2nc(-c3c(-c4ccc(F)cc4)ncn3C3CCN(CCC(F)(F)F)CC3)ccc2n1)c1ccncc1 [Compound 4, N-(6-(4-(4-fluorophenyl)-1-(1-(3,3,3-trifluoropropyl)piperidin-4-yl)-1H-imidazol-5-yl)imidazo[1,2-b]pyridazin-2-yl)isonicotinamide]
4 | 0.379 | 1.42 | O=C(Nc1cn2nc(-c3c(-c4ccc(F)cc4)ncn3C3CCN(C(=O)c4ccon4)CC3)ccc2n1)c1ccncc1 [Compound 5, N-(6-(4-(4-fluorophenyl)-1-(1-(isoxazole-3-carbonyl)piperidin-4-yl)-1H-imidazol-5-yl)imidazo[1,2-b]pyridazin-2-yl)isonicotinamide]
5 | 0.264 | 1.17 | O=C(Nc1cn2nc(-c3c(-c4ccc(F)cc4)ncn3C3CCN(C(=O)CC(F)(F)F)CC3)ccc2n1)c1ccncc1 [Compound 6, N-(6-(4-(4-fluorophenyl)-1-(1-(3,3,3-trifluoropropanoyl)piperidin-4-yl)-1H-imidazol-5-yl)imidazo[1,2-b]pyridazin-2-yl)isonicotinamide]
6 | 0.92 | 0.681 | O=C(Nc1cn2nc(-c3c(-c4ccc(F)cc4)ncn3C3CCNCC3)ccc2n1)c1ccnc(F)c1 [Compound 9, 2-fluoro-N-(6-(4-(4-fluorophenyl)-1-(piperidin-4-yl)-1H-imidazol-5-yl)imidazo[1,2-b]pyridazin-2-yl)isonicotinamide]
7 | 0.847 | 2.27 | O=C(Nc1cn2nc(-c3c(-c4ccc(F)cc4)ncn3C3CCN(CCC(F)(F)F)CC3)ccc2n1)c1ccnc(F)c1 [Compound 10, 2-fluoro-N-(6-(4-(4-fluorophenyl)-1-(1-(3,3,3-trifluoropropyl)piperidin-4-yl)-1H-imidazol-5-yl)imidazo[1,2-b]pyridazin-2-yl)isonicotinamide]
8 | 0.847 | 0.654 | CN1CCC(n2cnc(-c3ccc(F)cc3)c2-c2ccc3nc(NC(=O)c4ccnc(F)c4)cn3n2)CC1 [Compound 11]
9 | 0.847 | 0.283 | O=C(Nc1cn2nc(-c3c(-c4ccc(F)cc4)ncn3C3CCN(Cc4ccon4)CC3)ccc2n1)c1ccnc(F)c1 [Compound 12]
10 | 0.214 | 0.61 | O=C(Nc1cn2nc(-c3c(-c4ccc(F)cc4)ncn3C3CCN(CCO)CC3)ccc2n1)c1ccnc(F)c1 [Compound 13, 2-fluoro-N-(6-(4-(4-fluorophenyl)-1-(1-(2-hydroxyethyl)piperidin-4-yl)-1H-imidazol-5-yl)imidazo[1,2-b]pyridazin-2-yl)isonicotinamide]
11 | 0.624 | 3.91 | O=C(Nc1cn2nc(-c3c(-c4ccc(F)cc4)ncn3C3CCN(C(=O)c4cnon4)CC3)ccc2n1)c1ccnc(F)c1 [Compound 14, N-(6-(1-(1-(1,2,5-oxadiazole-3-carbonyl)piperidin-4-yl)-4-(4-fluorophenyl)-1H-imidazol-5-yl)imidazo[1,2-b]pyridazin-2-yl)-2-fuoroisonicotinamide]
12 | 0.215 | 14.1 | O=C(Nc1cn2nc(-c3c(-c4ccc(F)cc4)ncn3C3CCN(Cc4ccc(F)cc4)CC3)ccc2n1)c1ccnc(F)c1 [Compound 15, 2-fluoro-N-(6-(1-(1-(4-fluorobenzyI)piperidin-4-yl)-4-(4-fluorophenyl)-1H-imidazol-5-yl)imidazo[1,2-b]pyridazin-2-yl)isonicotinamide]
13 | 0.295 | 3.06 | O=C(Nc1cn2nc(-c3c(-c4ccc(F)cc4)ncn3C3CCN(Cc4ccncc4)CC3)ccc2n1)c1ccnc(F)c1 [Compound 16, 2-fluoro-N-(6-(4-(4-fluorophenyl)-1-(1-(pyridin-4-ylmethyl)piperidin-4-yl)-1H-imidazol-5-yl)imidazo[1,2-b]pyridazin-2-yl)isonicotinamide]
14 | 2.14 | 21.8 | O=C(Nc1cn2nc(-c3c(-c4ccc(F)cc4)ncn3C3CCN(Cc4cocn4)CC3)ccc2n1)c1ccnc(F)c1 [Compound 17, 2-fluoro-N-(6-(4-(4-fluorophenyl)-1-(1-(oxazol-4-ylmethyl)piperidin-4-yl)-1H-imidazol-5-yl)imidazo[1,2-b]pyridazin-2-yl)isonicotinamide]
15 | 0.259 | 0.599 | O=C(Nc1cn2nc(-c3c(-c4ccc(F)cc4)ncn3C3CCN(Cc4ncc[nH]4)CC3)ccc2n1)c1ccnc(F)c1 [Compound 18, N-(6-(1-(1-((1H-imidazol-2-yl)methyl)piperidin-4-yl)-4-(4-fluorophenyl)-1H-imidazol-5-yl)imidazo[1,2-b]pyridazin-2-yl)-2-fluoroisonicotinamide]
16 | 0.28 | 1.78 | O=C(Nc1cn2nc(-c3c(-c4ccc(F)cc4)ncn3C3CCN(Cc4cc[nH]n4)CC3)ccc2n1)c1ccnc(F)c1 [Compound 20, N-(6-(1-(1-((1H-pyrazol-3-yl)methyl)piperidin-4-yl)-4-(4-fluorophenyl)-1H-imidazol-5-yl)imidazo[1,2-b]pyridazin-2-yl)-2-fluoroisonicotinamide]
17 | 0.17 | 5.56 | Cc1nn(C)cc1CN1CCC(n2cnc(-c3ccc(F)cc3)c2-c2ccc3nc(NC(=O)c4ccnc(F)c4)cn3n2)CC1 [Compound 21]
18 | 0.101 | 1.29 | O=C(Nc1cn2nc(-c3c(-c4ccc(F)cc4)ncn3C3CCN(Cc4c[nH]cn4)CC3)ccc2n1)c1ccnc(F)c1 [Compound 22]
19 | 0.193 | – | O=C(Nc1cn2nc(-c3c(-c4ccc(F)cc4)ncn3C3CCN(C(=O)C4CCC4)CC3)ccc2n1)c1ccnc(F)c1 [Compound 68, N-(6-(1-(1-(cyclobutanecarbonyl)piperidin-4-yl)-4-(4-fluorophenyl)-1H-imidazol-5-yl)imidazo[1,2-b]pyridazin-2-yl)-2-fluoroisonicotinamide]
20 | 3.8 | – | O=C(Nc1cn2nc(-c3c(-c4ccc(F)cc4)nc4ccccn34)ccc2n1)C1CC1 [Compound 185, N-(6-(2-(4-fluorophenyl)imidazo[1,2-a]pyridin-3-yl)imidazo[1,2-b]pyridazin-2-yl)cyclopropanecarboxamide]
21 | 0.204 | – | O=C(Nc1cn2nc(-c3c(-c4ccc(Cl)cc4)ncn3CC(F)F)ccc2n1)c1ccnc(F)c1 [Compound 244, N-(6-(4-(4-chlorophenyl)-1-(2,2-difluoroethyl)-1H-imidazol-5-yl)imidazo[1,2-b]pyridazin-2-yl)-2-fluoroisonicotinamide]
22 | 1.21 | – | Cc1nc(-c2ccc(F)cc2)c(-c2ccc3nc(NC(=O)C(=O)c4ccccc4)cn3n2)n1C [Compound 317, N-(6-(4-(4-fluorophenyl)-1,2-dimethyl-1H-imidazol-5-yl)imidazo[1,2-b]pyridazin-2-yl)-2-oxo-2-phenylacetamide]
